Results published in patent US4460765A, “Enzyme inhibitor produced by cultivation of streptomyces microorganisms” (Sankyo Company Limited, priority 1979, dated 1984).

Key:
[1] = tested on: low Km cAMP PDE, rat aorta; test: cAMP PDE inhibition, low Km enzyme from rat aorta; format: biochemical; details: cAMP concentration 0.14 μM, read-out: 50% inhibitory value (I50)
Procedure: (§1) The inhibitory activity of the compounds of the invention (or of compositions, e.g. culture broths, containing them) may be assayed by the method of Pichard and Thun [Journal of Biological Chemistry, 251, 5726-5737 (1976)], using a crude enzyme solution derived from rat brains as the cAMP PDE. In this method, ^14 C-labelled cAMP is used as the substrate and is reacted at 30° C. for 20 minutes with 2-5 μl of the compound or composition under test, 20 μl of a snake venom and 40 μl of the crude enzyme solution in a 0.2M tris-HCl buffer (pH 8.0). The tris-HCl buffer is a mixture of tris(hydroxymethyl)aminomethane and hydrochloric acid. After completion of the reaction, the reaction mixture is treated with an Amberlite (Trade Mark) IRP-58 resin. From the residual radioactivity of the adenosine in the product, the inhibitory activity of the compound or composition against the cAMP PDE can be calculated as a percentage.
(§2) The inhibitory activity of griseolic acid against cAMP PDE in terms of its 50% inhibitory value (I50) are shown in Table 5 against cAMP PDE from a variety of sources having either a high or a low Michaelis constant (Km). The results are reported as μmoles (μM).

[2] = water solubility (qualitative); format: physicochemical
[3] = biological target: high Km cAMP PDE, rat kidney; test: cAMP PDE inhibition, high Km enzyme from rat kidney; format: biochemical; details: cAMP concentration 100 μM, read-out: 50% inhibitory value (I50)
Procedure: as §1, §2

[4] = biological target: low Km cAMP PDE, rat heart; test: cAMP PDE inhibition, low Km enzyme from rat heart; format: biochemical; details: cAMP concentration 0.14 μM, read-out: 50% inhibitory value (I50)
Procedure: as §1, §2

Hela S-3 strain cells = test: basic tests on cytotoxicity; format: cell-based, mouse; details: even at concentrations of 100 μg/ml
[5] = tested on: high Km cAMP PDE, rat aorta; test: cAMP PDE inhibition, high Km enzyme from rat aorta; format: biochemical; details: cAMP concentration 100 μM, read-out: 50% inhibitory value (I50)
Procedure: as §1, §2

[6] = tested on: low Km cAMP PDE, rat brain; test: cAMP PDE inhibition, low Km enzyme from rat brain; format: biochemical; details: cAMP concentration 0.14 μM; for IC50: read-out: 50% inhibitory value (I50)
Procedure: as §1, §2

[7] = biological target: high Km cAMP PDE, rat heart; test: cAMP PDE inhibition, high Km enzyme from rat heart; format: biochemical; details: cAMP concentration 100 μM, read-out: 50% inhibitory value (I50)
Procedure: as §1, §2

[8] = tested on: high Km cAMP PDE, rat platelets; test: cAMP PDE inhibition, high Km enzyme from rat platelets; format: biochemical; details: cAMP concentration 100 μM, read-out: 50% inhibitory value (I50)
Procedure: as §1, §2

[9] = biological target: high Km cAMP PDE, rat brain; test: cAMP PDE inhibition, high Km enzyme from rat brain; format: biochemical; details: cAMP concentration 100 μM, read-out: 50% inhibitory value (I50)
Procedure: as §1, §2

[10] = biological target: low Km cAMP PDE, rat kidney; test: cAMP PDE inhibition, low Km enzyme from rat kidney; format: biochemical; details: cAMP concentration 0.14 μM, read-out: 50% inhibitory value (I50)
Procedure: as §1, §2

[11] = biological target: T1, low Km cAMP PDE, rat platelets (Rattus norvegicus, UniProt Q62865); test: cAMP PDE inhibition, low Km enzyme from rat platelets; format: biochemical; details: cAMP concentration 0.14 μM, read-out: 50% inhibitory value (I50)
T1 construct: from tissue; host or cells: rat platelets
T1 sequence (Q62865 1-1141): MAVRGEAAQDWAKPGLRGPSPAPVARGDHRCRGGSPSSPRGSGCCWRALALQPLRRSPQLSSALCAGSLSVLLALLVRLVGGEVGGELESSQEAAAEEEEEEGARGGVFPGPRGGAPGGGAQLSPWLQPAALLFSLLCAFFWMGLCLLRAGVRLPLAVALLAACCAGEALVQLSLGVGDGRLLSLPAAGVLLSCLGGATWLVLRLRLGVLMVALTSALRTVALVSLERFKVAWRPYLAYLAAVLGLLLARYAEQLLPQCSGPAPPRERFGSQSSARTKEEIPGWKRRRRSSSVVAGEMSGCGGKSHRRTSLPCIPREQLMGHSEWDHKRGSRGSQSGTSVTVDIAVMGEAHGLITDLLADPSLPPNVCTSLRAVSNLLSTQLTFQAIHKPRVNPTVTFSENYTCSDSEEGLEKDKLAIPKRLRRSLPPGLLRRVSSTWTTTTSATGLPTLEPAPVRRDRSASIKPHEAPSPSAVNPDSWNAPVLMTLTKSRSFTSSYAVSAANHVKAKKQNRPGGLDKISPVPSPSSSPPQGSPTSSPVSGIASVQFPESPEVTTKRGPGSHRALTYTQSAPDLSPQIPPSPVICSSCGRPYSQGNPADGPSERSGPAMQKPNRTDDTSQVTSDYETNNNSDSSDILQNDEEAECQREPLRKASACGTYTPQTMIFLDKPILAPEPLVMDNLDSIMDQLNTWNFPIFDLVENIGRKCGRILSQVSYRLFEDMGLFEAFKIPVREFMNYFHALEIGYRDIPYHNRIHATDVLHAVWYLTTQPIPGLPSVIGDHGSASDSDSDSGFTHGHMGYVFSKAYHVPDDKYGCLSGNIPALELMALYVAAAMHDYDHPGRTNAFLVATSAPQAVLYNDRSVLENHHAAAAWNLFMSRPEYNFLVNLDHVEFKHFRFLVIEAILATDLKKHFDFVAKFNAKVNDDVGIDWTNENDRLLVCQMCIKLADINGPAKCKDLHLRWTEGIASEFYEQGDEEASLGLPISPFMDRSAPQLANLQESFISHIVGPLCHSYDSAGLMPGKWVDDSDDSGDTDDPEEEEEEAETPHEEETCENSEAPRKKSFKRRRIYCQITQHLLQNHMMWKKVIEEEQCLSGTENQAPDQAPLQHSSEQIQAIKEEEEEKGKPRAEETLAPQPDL
Procedure: as §1, §2

| Compound | IC50 [1] | water solubility [2] | IC50 [3] | IC50 [4] | inhibition of cell growth (Hela S-3 strain cells) | IC50 [5] | inhibitory activity relative to papaverine (times stronger) [6] | IC50 [6] | IC50 [7] | IC50 [8] | IC50 [9] | IC50 [10] | IC50 [11] |
| --- | --- | --- | --- | --- | --- | --- | --- | --- | --- | --- | --- | --- | --- |
| Nc1ncnc2c1ncn2C1OC2=C(C(=O)O)C(C(O)C(=O)O)OC2C1O (centres unmarked) [griseolic acid] | 31 nM | water-soluble | 580 nM | 36 nM | no inhibition of cell growth | 510 nM | about 20 times | 160 nM | 340 nM | 8 µM | 800 nM | 120 nM | 41 nM |
| COc1ccc(Cc2nccc3cc(OC)c(OC)cc23)cc1OC [Papaverine, reference compound] |  |  |  |  |  |  |  | 3500 nM |  |  |  |  |  |
